Source: a melting point compilation (Tetko et al.; mined from patent text by program, amines drawn as free bases though some values may be those of a salt)

melting point [°C]	SMILES
97 to 99	CN(C)C=C(C(=O)OC(C)(C)C)C(=O)c1ccccc1Cl
102 to 103	COCCOc1ccc(CCNC(=O)OCc2ccccc2)c(Oc2ncc(C(F)(F)F)cc2Cl)c1
> 220	O=C(CN1C(=O)c2ccccc2C1=O)N1CCN(C(=O)c2cc(C(F)(F)F)cc(C(F)(F)F)c2)[C@H](Cc2c[nH]c3ccccc23)C1
165 to 180	COc1ccc(N2C(=O)N(C(C)CO)c3nc(Nc4ccccc4)ncc3C2C)cc1 (configuration not stated)
96 to 98	O=C(OCC1CCc2c(O)cccc2C1)N(c1ccccc1)c1ccccc1 (configuration not stated)
109 to 111	COc1ccc(N2CCN(c3c(C)c4c(c(OC)c3C)OC(C)C4)CC2)cc1 (configuration not stated)
> 260	COc1ccc(NC(=O)c2cnc3ccccc3c2O)cc1
81 to 83	CCOC(=O)c1cc(N=c2sc(=O)n3n2CCCC3)c(Cl)cc1Cl
106 to 108	CSc1cnn(-c2c(Cl)cc(C(F)(F)F)cc2Cl)c1N
218 to 219	CCOC(=O)c1cnc2c(OC(F)F)c(F)ccc2c1O
150 to 154	CCCc1cc(C(=O)O)n(C)n1
145 to 146	CCN(CC)C(=O)c1cc(O)c(O)c([N+](=O)[O-])c1
196 to 198	Cc1sc(C(=O)O)cc1CC#N
108 to 109	C=CCc1cc(C=C2N=C(C)OC2=O)ccc1OC(C)=O
90 to 96	COCCOc1ccc(/C=C/c2cc(/C=C/c3ccc4cc[nH]c4c3)n[nH]2)c(OC)c1
82.5 to 83	CCOC(=O)c1cc(N)ccc1OC(C)=O
83 to 84	N#Cc1c2c(nn1-c1ccc(Cl)cc1F)CCCC2
192 to 193	COC(=O)Nc1cc(C(C)(C)C)cc(NC(=O)Nc2ccc(-c3ccc(CN4CCOCC4)nc3)c3ccccc23)c1OC
190 to 191	O=[N+]([O-])c1ccc(C2Nc3ccccc3-c3c([N+](=O)[O-])cnn32)cc1 (configuration not stated)
76 to 78	CCCn1c(=O)c2c(ncn2CCCCC(C)=O)n(C)c1=O
180	N#Cc1c(CNC(=O)c2ccc(OC(F)(F)F)cc2)nn(-c2ccc(Cl)cc2Cl)c1-c1ccc(Cl)cc1
256	Cc1c(Nc2c(C#N)cnc3sc(C(=O)N4CCCC4)cc23)ccc2[nH]ccc12
245	O=C1c2ccccc2C(=O)N1c1ccc2ccc(F)nc2n1

melting point [°C]	SMILES
202 to 203	CC(C)(C)c1cc(C(=O)Nc2ccccc2C(=O)O)cc(C(C)(C)C)c1O
162	CC(=O)C(CCS(C)(=O)=O)(CCS(C)(=O)=O)C(C)=O
122 to 123	CC(C)S(=O)(=O)c1cc(C#N)c(N)c(OCCc2ccccn2)c1
51.5 to 52.5	Cc1cnc(C#N)n1Cc1ccccc1
145 to 147	CCNc1nc(Nc2ccccc2)ncc1C(=O)OCC
100	Clc1ccc(-c2nc(CCCCCc3nnn[nH]3)oc2-c2ccc(Cl)cc2)cc1
263 to 264	O=C1OCc2c(c3cc(-c4ccc(Cl)cc4)ccc3n2Cc2ccccc2)C1=O
112 to 113	CCOC(=O)c1c(CC)nn(C)c1NC(=O)Cc1ccc(OC)cc1
89.5 to 90	CCOC(=O)C1(C(=O)Nc2ccc(Br)cc2C)CC1
185 to 188	N#Cc1ccc(C(N2CCN(c3ncccn3)CC2)N2CCCC2=O)cc1 (configuration not stated)
148 to 150	CCC(=O)Cc1ccc(OCc2nnn[nH]2)cc1
109 to 110	CN(C)C(=O)C1(CCC#N)c2ccccc2-c2ccccc21
137 to 140	CCN(CC)C(C)COc1ccccc1C(=O)O (configuration not stated)
104 to 107	C=CCCCS(=O)(=O)CCCC(=O)O
124 to 125	CCOc1ccc(/C=C(\NC(=O)c2ccc(OCC(C)C)cc2)C(=O)NCCO)cc1
109 to 112	O=C(O)Cc1noc(Cc2ccccc2)n1
110 to 111	CC(C)c1cn2ccccc2c1S(=O)(=O)c1ccc(OCC2CO2)cc1 (configuration not stated)
113 to 115	CCCCc1nc2ccccn2c(=O)c1-c1ccc(Cl)c(OC)c1
100	O=C(O)Cc1ccc(OCCNC(=O)C2Cc3ccccc3N2S(=O)(=O)c2ccc(-c3cc(C(F)(F)F)ccc3Cl)cc2)c(F)c1 (configuration not stated)
126 to 128	COC(=O)C1=C(C(OC)OC)NC(C)=C(C(=O)OCC(C)C)C1c1ccccc1C#N (configuration not stated)
204 to 206	FC(F)(F)c1n[nH]cc1-c1nc(Nc2ccccn2)cs1
155 to 157	COC(=O)[C@H](CCCO)NC(=O)[C@H](Cc1ccccc1)NC(=O)OCc1ccccc1
69 to 71.5	Cc1ccccc1-c1nn(C(C)C(=O)N(C)C)cc1Cl (configuration not stated)

melting point [°C]	SMILES
111 to 113	CC(C)C[C@H](NC(=O)c1ccc2c(c1)Nc1ccccc1S2)C(=O)N[C@H]1CCOC1OC(=O)CC(C)(C)C (some centres not stated)
85	O=C(O)c1cnn(OCCCC2OCCO2)c1
224 to 225	Cc1nc(O)c(C)c(Cl)n1
126 to 129	COC(=O)C1=Cc2cc(-c3ccc4c(c3)OCO4)ccc2SCC1
151 to 154	COc1ccc(O[C@@H]2COc3ccc(-c4ccc5cc(F)ccc5n4)cc3[C@@H]2O)cc1 (relative stereo)
159 to 162	CS(=O)(=O)Nc1ncc(SCc2ccccc2)s1
241 to 243	COc1ccc(-c2c(Cl)c(CN3C(=O)CCC3=O)nc3sc4c(c23)CCN(Cc2ccccc2)C4)cc1
> 250	COc1cc(C(=O)O)ccc1-c1nc2cc(Cl)c(Cl)cc2[nH]1
292 to 295	Cc1c2c(cc3c(=O)c4c(F)cccc4oc13)CC(C(=O)O)O2 (configuration not stated)
174 to 176	CCOC(=O)c1nn(-c2ccc(Br)cc2)c(=O)c(C#N)c1C
132 to 133	Cc1cc(C(=O)CS(C)(=O)=O)cc(C)c1N(C)C
132	CC(=O)COc1ccc2ccc(Oc3c(Cl)cc(C(F)(F)F)cc3Cl)cc2c1
128 to 132	COCCOCc1nc2cnc3ccc(OCc4ccccc4)cc3c2n1C
184 to 186	O=[N+]([O-])c1ccc(-c2scc3c2OCCO3)cc1
124	CC(=O)Nc1ccc(O)cc1F
180 to 181	Cc1ccc(C(=O)OCCO)cc1-n1c(C)cc(OCc2ccc(F)cc2CNC(=O)Nc2cc(C(C)(C)C)nn2-c2cccc(OCCO)c2)c(Cl)c1=O
64 to 66	CCOC(=O)Cc1nnnn1C
100	Cc1c(-c2ccccc2)n[nH]c1OCCN1CCOCC1
242 to 244	Nc1ccc(C2=NNC(=O)Cc3cc4c(cc32)OCO4)cc1
130	CC(C)Oc1cc(Oc2ccc(C(F)(F)F)cn2)ccc1CCCOc1cc(CCC(=O)O)n(-c2ccccc2)n1
201 to 203	O=C(O)CS(=O)(=O)c1ccc2c(-c3ccc(Cl)cc3)noc2c1
202	O=[N+]([O-])C=C1NCCCN1c1ccc(Cl)nc1
129 to 133	CS(=O)(=O)c1ncnn1C[C@]1(c2ccccc2Cl)O[C@@H]1c1ccc(Cl)cc1Cl (relative stereo)

SMILES	melting point [°C]
CCCCCn1c2ccc(CN3CCCCC3)cc2c2ccc(OC)cc21	64 to 65
CON=C(Cn1nnnc1S)C(=O)O	84 to 86
COc1ccc2c(c1O)C13CCN(C)C(C2)C1C=C(C)C(=O)C3 (configuration not stated)	183 to 185
